Assay results: PubChem BioAssay (NCI)
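Grown in 96-well plates, cells were treated for 48 hours with each compound at five concentrations. Insufficient inhibition: endpoint recorded as highest concentration tested. The concentration for full growth arrest is given as TGI.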

Tests used:
Assay in all cases: growth of human tumour cells (NCI), 48 h
BT-549 breast = system: BT-549 breast
HCT-15 colon = system: HCT-15 colon
HOP-62 NSCLC = system: HOP-62 NSCLC
MOLT-4 leukemia = system: MOLT-4 leukemia
SK-MEL-28 melanoma = system: SK-MEL-28 melanoma
SN12C renal = system: SN12C renal
SNB-75 CNS = system: SNB-75 CNS
UACC-62 melanoma = system: UACC-62 melanoma

Compound	TGI (BT-549 breast) [µM]	TGI (HCT-15 colon) [µM]	TGI (HOP-62 NSCLC) [µM]	TGI (MOLT-4 leukemia) [µM]	TGI (SK-MEL-28 melanoma) [µM]	TGI (SN12C renal) [µM]	TGI (SNB-75 CNS) [µM]	TGI (UACC-62 melanoma) [µM]
CC(=O)OCC1OC(NC(=S)Nn2c(=O)[nH]c3ccccc3c2=O)C(OC(C)=O)C(OC(C)=O)C1OC(C)=O (stereo unspecified)	> 100	> 100	> 100	> 100	> 100	> 100	> 100	> 100
CC(C)C[C@H]1[C@@H](OCc2ccccc2)COS(=O)(=O)N1[C@H](C)c1ccccc1	> 100	> 100	> 100	> 74.7	> 100	> 100	> 100	> 100
Cc1cc(S(=O)(=O)Nc2nc(N)nc(N3N=CCC3C)n2)c(SCC(=O)O)cc1Cl (stereo unspecified)	> 10	> 10	> 10	> 10	> 10	> 10	> 10	> 10
COc1ccc(CNc2ccn(C3OC(CO)C(O)C3O)c(=O)n2)cc1 (stereo unspecified)	> 100	> 100	> 100	> 100	> 100	> 100		> 100
C/C(Cl)=N/OC(=O)Nc1ccc(F)c([N+](=O)[O-])c1	29.8	12.6	33.9	3.9	37.1	19.4	25	> 63.2
CC(=O)OC1=NN=C2COC(c3ccccc3OC(C)=O)=NN2C1	> 50	> 50	> 50		> 50	> 50	> 50	> 50
CC1(C)C2CC(O)C1(C)CC2=O (stereo unspecified)	> 100	> 100	> 100	> 100	14.8	> 100	> 100	> 100
O=C(CC(O)(C(F)(F)F)C(F)(F)F)C(c1ccccc1)C(O)(C(F)(F)F)C(F)(F)F (stereo unspecified)	> 100	> 100		> 100	> 100		27.2	> 100
CCCCCCCC(CC(=O)NC(CO)C(=O)NC(CO)CC(C)C)OC(=O)CC(CCCCCCC)OC(=O)CC(CCCCCCC)OC1OC(C)C(O)C(OC2OC(C)C(O)C(OC(C)=O)C2O)C1O (stereo unspecified)	19.9		24.8	16.8	24.6	19.9	19.1	25.8
C1C2CC3CC1CC(c1nn4c(C56CC7CC(CC(C7)C5)C6)nnc4s1)(C2)C3		> 100	> 100	> 100	> 100	> 100	> 100	> 100
CSC1=N/C(=C\c2ccc(C)cc2)C(=O)N1	> 100	> 100	> 100	> 100	> 100	> 100	> 100	> 100
N=c1c2ccccc2nc2oc3cc([N+](=O)[O-])ccc3n12	91.6	> 100	45.4	> 100	> 100	> 100	24.9	> 100
Cc1c(N=Nc2ccccc2)c(-c2ccccc2)n(C2OC(CO)C(O)C(O)C2O)c(=S)c1C#N (stereo unspecified)	> 100	25.5	23.2	24.5	19.6	28.5	> 100	13
COC(=O)/C(C)=N/NC(=S)SC		> 100	> 100	> 100	> 100			
CC[C@@]1(O)C(=O)OCc2c1cc1n(c2=O)Cc2c-1nc1ccccc1c2/C=N\NC(=O)C[n+]1ccccc1	> 100	> 100		11.7	> 100	> 69	> 28.2	1.22
NCc1ccc(-c2ccc(CN)s2)s1		> 100	> 100	> 100	> 100	> 100	> 100	> 100
O=C1C2=Cc3ccccc3CCN2c2ccccc21	33	> 79.5	> 100	48	> 82.3	> 31.6	> 100	
COC(=O)C1=CC2C(=O)c3ccccc3C1(c1ccccc1)N2C1CCCCC1 (stereo unspecified)	79.7	> 100	36.8	> 100	41.4	> 100	> 100	
C=CC(C)(C)n1cc(C2=C3OC(=O)C(c4cn(C(C)(C)C=C)c5ccccc45)=C3OC2=O)c2ccccc21	> 100	> 100	> 100	> 100	> 100	> 100	> 100	
Cc1cccc(N/C(=C(/C(Cl)=C(Cl)Cl)[N+](=O)[O-])n2nnc3ccccc32)c1	36.5	42.3	33.3	> 100	28.1	32.9		37
O=C1c2ccccc2C(=O)C2NC(CCCCCSSCCCCCC3=NC4C(=O)c5ccccc5C(=O)C4N3)=NC12 (stereo unspecified)		> 100	> 100	> 100	> 100			
Cc1cn(C2OC(CO[Si](C)(C)C(C)(C)C)/C(=C\C#N)C2O[Si](C)(C)C(C)(C)C)c(=O)[nH]c1=O (stereo unspecified)		> 100	> 100	> 100	> 100	> 100	> 100	> 100
O=c1[nH]c2cccc([N+](=O)[O-])c2c(=O)n1-c1ccc(Cl)cc1	23.7	30.2	61	43.2	26.8	33.9		23.1
O=C1Cc2c([nH]c3ccc(Br)cc23)-c2cc(Br)ccc2N1	> 100	> 100		> 100	> 100			> 100
CC(C)(C)c1cc(S(=O)(=O)O)c2oc(-c3ccccc3)cc(=O)c2c1	> 100	> 100	> 100	> 100	> 100	> 100	> 100	
CN(C)CCn1c(=O)c2ccc(NCCNCCO)c3c(=O)c4ccccc4n(c1=O)c23	4.81	6.9	0.851		> 19.7	0.509	0.404	0.88
